pIC50: −log10 of the molar value. “Also recorded” adds a separate entry of the source. Like-named read-outs stand apart in the source and are kept apart here.
Key:
[1] = tested on: U-373 glioma cells expressing rabbit liver CE; assay: Growth inhibition by APC, U-373 glioma cells expressing rabbit liver CE; assay type: cell-based, human; settings: U-373 cells expressing rabbit liver CE, 2 h exposure (FIG. 7)
Procedure: FIG. 7 is a linegraph showing a comparison of the sensitization, depicted as % survival on the Y-axis, of U-373 glioma cells exposed to APC, depicted as log[APC] at concentrations from 10^−8 to 10^−5 M on the X-axis, from in situ expression of rabbit liver CE (filled squares) and human alveolar macrophage CE (filled circles). Cells were exposed for 2 hours to APC.
(§1) No known human enzyme activates APC. […] Thus, the combination of APC and sensitization of selected tumor cells with rabbit liver CE as described above can be used to produce a tumor-specific cell death while greatly minimizing the toxic side effects associated with administration of chemotherapy.

[2] = in humans; cited from earlier work
[3] = biological target: T1, rabbit liver CE (Oryctolagus cuniculus, UniProt P12337); assay type: biochemical; parameters: To amplify a full length rabbit CE cDNA, oligonucleotide primers RabNTERM; expressed in transfected cells; settings: in vitro, rabbit CE (FIG. 6)
T1 sequence (P12337 19-565): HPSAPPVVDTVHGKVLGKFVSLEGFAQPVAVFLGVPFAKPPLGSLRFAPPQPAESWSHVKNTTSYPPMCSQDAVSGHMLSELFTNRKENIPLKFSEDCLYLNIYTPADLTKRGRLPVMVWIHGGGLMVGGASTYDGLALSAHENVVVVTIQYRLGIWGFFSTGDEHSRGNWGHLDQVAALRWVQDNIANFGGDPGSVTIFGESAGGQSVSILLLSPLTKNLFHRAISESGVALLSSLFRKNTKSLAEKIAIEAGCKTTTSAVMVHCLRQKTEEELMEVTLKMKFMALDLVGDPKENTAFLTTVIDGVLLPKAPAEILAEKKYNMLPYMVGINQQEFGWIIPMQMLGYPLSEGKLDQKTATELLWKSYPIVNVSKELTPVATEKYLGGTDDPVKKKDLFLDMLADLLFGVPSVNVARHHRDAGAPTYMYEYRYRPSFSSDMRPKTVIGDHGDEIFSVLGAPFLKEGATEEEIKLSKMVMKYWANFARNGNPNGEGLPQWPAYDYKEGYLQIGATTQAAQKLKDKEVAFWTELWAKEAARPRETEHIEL
Text: FIG. 6 is a linegraph showing the conversion of APC, depicted on the X-axis at nanomolar concentrations, to SN-38, depicted on the Y-axis at nanomolar concentrations, in vitro by the activity of rabbit liver CE given at doses of 0 (filled cross), 10 (filled hexagon), 25 (filled triangle), 50 (filled circle) or 100 (filled square) units. Data presented represent the mean response at each dose level.
as §1

[4] = tested on: Rh30pIRESrabbit xenografts (expressing rabbit CE); assay: Rh30pIRESrabbit rhabdomyosarcoma xenografts in SCID mice; assay type: in vivo; settings: 2.5 mg CPT-11/kg/day, 5 days/week for 2 weeks, every 21 days, three cycles
Procedure: (§2) The tumor growth rate is depicted on the Y-axis of each graph in terms of tumor volume and is plotted as a function of time in weeks (X-axis).
(§3) In this preclinical model, expression of the transfected cDNA for rabbit CE was maintained for at least 12 weeks.
(§4) Experiments were performed in this model to compare the responses of mice bearing human Rh30 and Rh30pIRESrabbit xenografts. Rh30 rhabdosarcoma xenografts were transfected with pIRESneo plasmid containing the cDNA for rabbit liver CE and selected with G418. Expression of CE was confirmed by biochemical assay using the CE substrate o-NPA and maintained for at least 12 weeks. Two groups of SCID mice were then injected with the transfected Rh30pIRESrabbit cells subcutaneously into the flanks. A third group of control mice was injected in identical fashion with Rh30 cells not transfected with the plasmid.

[5] = tested on: Rh30 cells; assay: Growth inhibition of Rh30 cells by CPT-11 pre-incubated with rabbit liver CE; assay type: cell-based, human
Text: Another aspect of the present invention relates to the ability of compositions comprising a polynucleotide encoding a carboxylesterase and a disease-specific responsive promoter of selected tumor cells to sensitize the tumor cells to a chemotherapeutic prodrug. The ability of a rabbit CE or a human intestinal CE of the present invention to sensitize human tumor cells to CPT-11 was examined. Experiments were first performed to confirm that the metabolite produced by the activity of a CE of the present invention is biologically active in vitro. Rh30 cells were exposed to the products of each reaction for one hour and the percentage of growth inhibition was determined. […] Similar confirmatory experiments were performed with COS-7 cells.
Each reaction mixture was then filter-sterilized and Rh30 cells were exposed to drug for one hour, at which time the medium was replaced with drug-free medium containing serum. […] Cells were allowed to grow for 3 cell doubling times and cell numbers were determined.

[6] = tested on: Rh18 RMS xenografts; settings: cited from earlier work
[7] = biological target: T2, human liver CE (hCE1) (Homo sapiens, UniProt P23141); assay: CPT-11 conversion assay, COS-7 cells expressing hCE1; assay type: in vitro ADME; settings: plasmid pCIHUMCAR, enzyme hCE1
T2 construct: expressed in transfected cells; host or cells: COS-7 (sonicates of transiently transfected cells)

[8] = biological target: rabbit liver CE (Oryctolagus cuniculus, UniProt P12337); settings: commercially available partially purified rabbit liver CE
Text: (§5) This screening included enzymes from a series of sera, cell extracts and commercially available CEs using a rapid fluorometric assay.

[9] = tested on: COS-7 cells transfected with the parent plasmid; assay: Growth inhibition, COS-7 cells transfected with parent plasmid; assay type: cell-based, monkey; settings: Primates, read-out: IC50 (CPT-11); COS-7 cells transfected with the parent plasmid (pCEneo)
Procedure: (§6) Growth inhibition assays were performed with COS-7 cells as previously described (Potter et al. 1998 Cancer Res. 52:2646-2651; Danks et al. 1998 Cancer Res. 52:2646-2651,1998). Forty-eight hours after transfection, 5×10^4 cells were plated into 1.5 cm diameter dishes and allowed to attach overnight. […] Cell number was determined by counting using a Coulter Multisyser II (Coulter Electronics, Luton, England) and growth inhibition curves were plotted using Prism software (GraphPad Software Inc., San Diego, Calif.).

[10] = tested on: Rh30 xenografts; assay: Rh30 rhabdomyosarcoma xenografts (no CE) in SCID mice; assay type: in vivo; settings: Rh30 xenografts not expressing CE, 2.5 mg CPT-11/kg/day, 5 days/week for 2 weeks, every 21 days, three cycles
Procedure: as §2, §3, §4

[11] = biological target: T1, rabbit liver CE; assay type: in vitro ADME; parameters: To amplify a full length rabbit CE cDNA, oligonucleotide primers RabNTERM; expressed in transfected cells; host or cells: COS-7 (sonicates of transiently transfected cells); settings: COS-7 cells, plasmid pCIRAB, enzyme rabbit
[12] = tested on: U373 glioblastoma xenografts expressing rabbit liver CE; assay: U373 glioblastoma xenografts expressing rabbit CE in SCID mice; assay type: in vivo; settings: CPT-11 7.5 mg/kg/day, three cycles
Text: (§7) The tumor growth rate is depicted on the Y-axis in terms of tumor volume and is plotted as a function of time in weeks (X-axis). Open circles depict the tumor volume of untreated U373 xenografts expressing rabbit CE. Filled triangles depict the response of control xenografts (no rabbit CE) treated with CPT-11. Filled squares depict the response of cells expressing rabbit CE and treated with CPT-11. […] Each point represents the mean of 14 tumors in 7 individual mice.
(§8) Similar studies were performed employing U373 glioblastoma cells transfected with the pIRESneo plasmid or with pIRESneo containing the cDNA for rabbit liver CE and selected with G418. Expression of CE in the tumor cells was confirmed by biochemical assay using the substrate o-NPA. Cells were injected subcutaneously into the flanks of the SCID mice.

[13] = tested on: Cos7 cells expressing rabbit liver CE; assay: Cell survival of Cos7 cells transiently transfected with rabbit CE (pCIRABFL); assay type: cell-based, monkey; settings: control Cos7 cells versus Cos7 cells transfected with CE
Text: To confirm that the cDNA encoded CE, the 1.7 kb EcoRI fragment was ligated into pCIneo to generate pCIRABFL and the plasmid transiently transfected into Cos7 cells. pCIneo contains the SV40 origin of replication allowing plasmid amplification in cells expressing the large T antigen, such as Cos7.

[14] = tested on: human NB-1691 xenografts; assay: NB-1691 xenograft model for MRD; assay type: in vivo, mice; settings: 10 mg/kg CPT-11 daily for 5 days on two consecutive weeks
Text: However, within 4-6 weeks, tumors are palpable in the exact position where the original xenograft was implanted. Since these tumors arise from cells that survived the initial cycle of chemotherapy, this model therefore mimics results seen in patients following surgical resection of the primary tumor and subsequent regrowth at the same site.

[15] = tested on: pig liver CE; assay: CPT-11 metabolism by commercially available pig liver CE; settings: commercially available partially purified pig liver CE
Text: as §5

[16] = tested on: U373 glioblastoma xenografts transfected with control plasmid; assay: U373 glioblastoma xenografts with control plasmid in SCID mice; assay type: in vivo; settings: U373 xenografts with control plasmid (no rabbit CE), CPT-11 7.5 mg/kg/day, three cycles
Text: as §7, §8

[17] = tested on: CEs purified from human tissues; settings: cited from earlier work
[18] = tested on: COS-7 cells expressing hiCE; assay: Growth inhibition, COS-7 cells expressing hiCE; assay type: cell-based, monkey; settings: Primates, read-out: IC50 (CPT-11), 2 h exposure, three days growth
Procedure: as §6

[19] = biological target: topoisomerase I (Homo sapiens, UniProt P11387); settings: cited from earlier work
topoisomerase I, sequence (P11387 whole entry): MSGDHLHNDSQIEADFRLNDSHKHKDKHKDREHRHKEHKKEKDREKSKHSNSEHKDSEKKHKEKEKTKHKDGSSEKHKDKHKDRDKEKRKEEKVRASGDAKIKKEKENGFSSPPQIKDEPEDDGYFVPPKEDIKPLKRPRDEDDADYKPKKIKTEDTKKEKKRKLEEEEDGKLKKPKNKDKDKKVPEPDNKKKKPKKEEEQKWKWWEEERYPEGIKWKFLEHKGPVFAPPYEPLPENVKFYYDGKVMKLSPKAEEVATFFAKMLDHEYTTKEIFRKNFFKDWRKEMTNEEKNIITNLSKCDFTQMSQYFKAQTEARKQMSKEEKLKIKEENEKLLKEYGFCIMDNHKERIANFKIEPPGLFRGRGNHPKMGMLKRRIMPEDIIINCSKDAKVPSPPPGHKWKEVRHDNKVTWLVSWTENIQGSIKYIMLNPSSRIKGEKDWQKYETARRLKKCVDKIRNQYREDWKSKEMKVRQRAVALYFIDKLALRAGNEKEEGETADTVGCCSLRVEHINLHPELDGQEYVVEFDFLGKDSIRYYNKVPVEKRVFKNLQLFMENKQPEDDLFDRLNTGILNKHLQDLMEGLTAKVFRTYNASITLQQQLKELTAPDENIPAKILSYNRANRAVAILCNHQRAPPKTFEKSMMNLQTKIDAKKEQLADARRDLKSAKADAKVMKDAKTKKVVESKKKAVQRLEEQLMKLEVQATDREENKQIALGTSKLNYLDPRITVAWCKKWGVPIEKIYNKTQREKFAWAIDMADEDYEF

T2 sequence (P23141 18-567): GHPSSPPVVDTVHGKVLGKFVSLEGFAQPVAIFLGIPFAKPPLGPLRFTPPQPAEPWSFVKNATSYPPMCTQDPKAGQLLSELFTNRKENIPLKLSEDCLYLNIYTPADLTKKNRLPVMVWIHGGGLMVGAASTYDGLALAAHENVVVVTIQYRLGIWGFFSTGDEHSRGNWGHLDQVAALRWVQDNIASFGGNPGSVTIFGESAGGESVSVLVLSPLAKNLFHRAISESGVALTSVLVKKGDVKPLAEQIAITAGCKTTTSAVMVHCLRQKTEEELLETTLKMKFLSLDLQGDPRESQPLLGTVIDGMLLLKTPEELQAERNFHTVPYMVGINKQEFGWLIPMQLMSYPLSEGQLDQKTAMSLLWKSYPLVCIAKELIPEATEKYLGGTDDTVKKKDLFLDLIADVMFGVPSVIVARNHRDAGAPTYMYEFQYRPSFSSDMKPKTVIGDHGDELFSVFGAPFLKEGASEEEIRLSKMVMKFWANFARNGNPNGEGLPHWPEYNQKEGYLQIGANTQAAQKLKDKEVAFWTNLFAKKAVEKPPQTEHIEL

**Q.** For `CCc1c2c(nc3ccc(OC(=O)N4CCC(NCCCCC(=O)O)CC4)cc13)-c1cc3c(c(=O)n1C2)COC(=O)[C@]3(O)CC` [APC], which “sensitization to growth inhibitory effects of APC” value [1] is on record?
**A.** sensitized to the growth inhibitory effects of APC

**Q.** What about the “conversion to an active metabolite” value [2] of the same compound?
**A.** not converted to an active metabolite in humans

**Q.** And the “conversion of APC to SN-38” value [3]?
**A.** converted to SN-38 in a concentration-dependent manner

**Q.** With `CCc1c2c(nc3ccc(OC(=O)N4CCC(N5CCCCC5)CC4)cc13)-c1cc3c(c(=O)n1C2)COC(=O)[C@]3(O)CC` [CPT-11, 7-ethyl-10-[4-(1-piperidino)-1-piperidino]carbonyloxycamptothecin] as the compound, how does the tumor response [4] read?
**A.** regressed completely and did not regrow during the 12 weeks of the study; also recorded: complete tumor regression, even out to 12 weeks

**Q.** And the inhibition at 1 µM ([5]; Homo sapiens, Rh30, 1 h, read-out: inhibition of cell growth)?
**A.** 30 to 60%

**Q.** And the “inhibition of cell growth” value ([5]; Rh30 cells, 1 to 5 units of CE inactivated by heating)?
**A.** no inhibition of cell growth

**Q.** What about the tumor response ([6]; 10 mg/kg/day, same schedule) of the same compound?
**A.** only partial tumor regression

**Q.** And the tumor response ([6]; 20 mg of CPT-11/kg/day daily for 5 days for two weeks)?
**A.** complete regression

**Q.** And the “CPT-11 Conversion” value [7]?
**A.** 9.6 pmol/h/mg

**Q.** What about the “metabolism of CPT-11” value [8] of the same compound?
**A.** metabolized CPT-11 efficiently

**Q.** And the pIC50 [9]?
**A.** 5.27

**Q.** What about the tumor response [10] of the same compound?
**A.** regressed only transiently, regrowing within one week after CPT-11 treatment had stopped; also recorded: initial regression but regrowth; also recorded: regressed only transiently with CPT-11 treatment, with regrowth occurring within one week after CPT-11 treatment stopped

**Q.** And the “CPT-11 Conversion” value [11]?
**A.** 2323.0 pmol/h/mg

**Q.** And the tumor response [12]?
**A.** regressed completely; also recorded: tumor regression was seen only in treated cells expressing rabbit CE

**Q.** What about the “difference in sensitivity to CPT-11 (% cell survival, FIG. 5)” value [13] of the same compound?
**A.** approximately 350 fold

**Q.** What about the “time until tumors are palpable again at the original site” value [14] of the same compound?
**A.** 4-6 weeks

**Q.** And the tumor response [14]?
**A.** complete regression of the tumor

**Q.** And the “metabolism of CPT-11” value [15]?
**A.** metabolized CPT-11 efficiently

**Q.** And the tumor response [16]?
**A.** stable disease with no significant regression; also recorded: stable disease but no significant regression

**Q.** What about the “prodrug converted to active drug (SN-38)” value [17] of the same compound?
**A.** less than 5%

**Q.** And the pIC50 [18]?
**A.** 6.30

**Q.** For `CCc1c2c(nc3ccc(O)cc13)-c1cc3c(c(=O)n1C2)COC(=O)[C@]3(O)CC` [SN-38, 7-ethyl-10-hydroxy-camptothecin], which “inhibition of topoisomerase I” value [19] is on record?
**A.** potent inhibitor of topoisomerase I

Source: patent US7452717B2, “Compositions and methods for sensitizing and inhibiting growth of human tumor cells” (St. Jude Children's Research Hospital, priority 1998, dated 2008)
